Data: patent publication US11311522B1 (Cavion, Inc., priority 2018, dated 2022)

Test: PN002/Part II: safety and tolerability
Format: in vivo
Excerpt: Clinical safety was monitored throughout the study by adverse events, clinical laboratory tests, vital signs, ECGs, and ECG telemetry.
The subject was not on telemetry at the time.

CC(C)c1ccc(CC(=O)N[C@H](C)c2ccc(OCC(F)(F)F)cn2)cc1 [CX-8998]
Abnormal sensation of limbs (12 mg/d): 0 n % | Anger (12 mg/d): 0 n % | Application site erythema (12 mg/d): 1 (16.7) n % | Application site pruritus (12 mg/d): 1 (16.7) n % | At least 1 adverse event (12 mg/d): 6 (100) n % | Backache (12 mg/d): 0 n % | Clamminess (12 mg/d): 0 n % | Daydreaming (12 mg/d): 0 n % | Disorientation (12 mg/d): 0 n % | Dizziness (12 mg/d): 1 (16.7) n % | Drowsiness (12 mg/d): 0 n % | Dyspepsia (12 mg/d): 0 n % | Euphoric mood (12 mg/d): 0 n % | Eye Disorders (12 mg/d): 1 (16.7) n % | Feeling drunk (12 mg/d): 0 n % | Feeling of relaxation (12 mg/d): 2 (33.3) n % | Floating feeling (12 mg/d): 0 n % | Fuzzy head (12 mg/d): 0 n % | Gastrointestinal Disorders (12 mg/d): 1 (16.7) n % | Hallucination (12 mg/d): 0 n % | Headache (12 mg/d): 1 (16.7) n % | Heaviness of head (12 mg/d): 1 (16.7) n % | Hyperactivity (12 mg/d): 1 (16.7) n % | Hypoaesthesia mouth (12 mg/d): 0 n % | Increased state of alertness (12 mg/d): 0 n % | Intermittent headache (12 mg/d): 1 (16.7) n % | Lethargy (12 mg/d): 0 n % | Lightheadedness (12 mg/d): 0 n % | Mood altered (12 mg/d): 1 (16.7) n % | Mood change (12 mg/d): 0 n % | Musculoskeletal and Connective Tissue Disorders (12 mg/d): 1 (16.7) n % | Nausea (12 mg/d): 0 n % | Nervous System Disorders (12 mg/d): 2 (33.3) n % | Paraesthesia generalized (12 mg/d): 0 n % | Paranoia (12 mg/d): 0 n % | Psychiatric Disorders (12 mg/d): 2 (33.3) n % | Respiratory, Thoracic and Mediastinal Disorders (12 mg/d): 0 n % | Sedation (12 mg/d): 0 n % | Sensation of heaviness (12 mg/d): 0 n % | Sensation of pressure (12 mg/d): 0 n % | Skin and Subcutaneous Tissue Disorders (12 mg/d): 1 (16.7) n % | Sleep difficult (12 mg/d): 1 (16.7) n % | Sleep disturbance (12 mg/d): 0 n % | Somnolence (12 mg/d): 0 n % | Sore throat (12 mg/d): 0 n % | Spaced out (12 mg/d): 0 n % | Syncope (12 mg/d): 0 n % | Taste change (12 mg/d): 0 n % | Temporal disorientation (12 mg/d): 0 n % | Tingling (12 mg/d): 0 n % | Tiredness (12 mg/d): 5 (83.3) n % | Visual disturbance (12 mg/d): 0 n % | Vivid dreams (12 mg/d): 0 n % | Vomiting (12 mg/d): 0 n % | Subjects discontinuing treatment because of adverse events (18 mg once daily): 4 of the 6 subjects | Abnormal physical sensation (18 mg/d): 2 (33.3) n % | Abnormal sensation of limbs (18 mg/d): 2 (33.3) n % | Anger (18 mg/d): 2 (33.3) n % | Application site erythema (18 mg/d): 0 n % | Application site pruritus (18 mg/d): 0 n % | At least 1 adverse event (18 mg/d): 6 (100) n % | Backache (18 mg/d): 2 (33.3) n % | Clamminess (18 mg/d): 1 (16.7) n % | Daydreaming (18 mg/d): 2 (33.3) n % | Disorientation (18 mg/d): 1 (16.7) n % | Dizziness (18 mg/d): 2 (33.3) n % | Drowsiness (18 mg/d): 2 (33.3) n % | Dyspepsia (18 mg/d): 0 n % | Euphoric mood (18 mg/d): 1 (16.7) n % | Eye Disorders (18 mg/d): 2 (33.3) n % | Feeling drunk (18 mg/d): 2 (33.3) n % | Feeling of relaxation (18 mg/d): 0 n % | Floating feeling (18 mg/d): 0 n % | Fuzzy head (18 mg/d): 1 (16.7) n % | Gastrointestinal Disorders (18 mg/d): 4 (66.7) n % | Hallucination (18 mg/d): 2 (33.3) n % | Headache (18 mg/d): 4 (66.7) n % | Heaviness of head (18 mg/d): 1 (16.7) n % | Hyperactivity (18 mg/d): 0 n % | Hypoaesthesia mouth (18 mg/d): 2 (33.3) n % | Increased state of alertness (18 mg/d): 0 n % | Intermittent headache (18 mg/d): 0 n % | Lethargy (18 mg/d): 1 (16.7) n % | Lightheadedness (18 mg/d): 1 (16.7) n % | Mood altered (18 mg/d): 0 n % | Mood change (18 mg/d): 0 n % | Musculoskeletal and Connective Tissue Disorders (18 mg/d): 4 (66.7) n % | Nausea (18 mg/d): 2 (33.3) n % | Nervous System Disorders (18 mg/d): 6 (100) n % | Paraesthesia generalized (18 mg/d): 1 (16.7) n % | Paranoia (18 mg/d): 2 (33.3) n % | Psychiatric Disorders (18 mg/d): 6 (100) n % | Respiratory, Thoracic and Mediastinal Disorders (18 mg/d): 1 (16.7) n % | Sedation (18 mg/d): 0 n % | Sensation of heaviness (18 mg/d): 1 (16.7) n % | Sensation of pressure (18 mg/d): 0 n % | Skin and Subcutaneous Tissue Disorders (18 mg/d): 3 (50.0) n % | Sleep difficult (18 mg/d): 1 (16.7) n % | Sleep disturbance (18 mg/d): 1 (16.7) n % | Somnolence (18 mg/d): 0 n % | Sore throat (18 mg/d): 1 (16.7) n % | Spaced out (18 mg/d): 2 (33.3) n % | Syncope (18 mg/d): 1 (16.7) n % | Taste change (18 mg/d): 1 (16.7) n % | Temporal disorientation (18 mg/d): 0 n % | Tingling (18 mg/d): 0 n % | Tiredness (18 mg/d): 2 (33.3) n % | Visual disturbance (18 mg/d): 2 (33.3) n % | Vivid dreams (18 mg/d): 0 n % | Vomiting (18 mg/d): 1 (16.7) n % | Abnormal physical sensation (any dose): 2 (6.7) N (%) | Abnormal sensation of limbs (any dose): 2 (6.7) N (%) | Anger (any dose): 2 (6.7) N (%) | Application site erythema (any dose): 4 (13.3) N (%) | Application site pruritus (any dose): 2 (6.7) N (%) | At least 1 adverse event (any dose): 27 (90.0) N (%) | Backache (any dose): 2 (6.7) N (%) | Clamminess (any dose): 2 (6.7) N (%) | Daydreaming (any dose): 3 (10.0) N (%) | Disorientation (any dose): 2 (6.7) N (%) | Dizziness (any dose): 3 (10.0) N (%) | Drowsiness (any dose): 5 (15.7) N (%) | Dyspepsia (any dose): 2 (6.7) N (%) | Euphoric mood (any dose): 4 (13.3) N (%) | Eye Disorders (any dose): 6 (20.0) N (%) | Feeling drunk (any dose): 2 (6.7) N (%) | Feeling of relaxation (any dose): 7 (23.3) N (%) | Floating feeling (any dose): 3 (10.0) N (%) | Fuzzy head (any dose): 3 (10.0) N (%) | Gastrointestinal Disorders (any dose): 11 (36.7) N (%) | Hallucination (any dose): 2 (6.7) N (%) | Headache (any dose): 14 (46.7) N (%) | Heaviness of head (any dose): 2 (6.7) N (%) | Hyperactivity (any dose): 3 (10.0) N (%) | Hypoaesthesia mouth (any dose): 2 (6.7) N (%) | Increased state of alertness (any dose): 2 (6.7) N (%) | Intermittent headache (any dose): 3 (10.0) N (%) | Lethargy (any dose): 3 (10.0) N (%) | Lightheadedness (any dose): 9 (30.0) N (%) | Mood altered (any dose): 2 (6.7) N (%) | Mood change (any dose): 2 (6.7) N (%) | Musculoskeletal and Connective Tissue Disorders (any dose): 8 (26.7) N (%) | Nausea (any dose): 5 (16.7) N (%) | Nervous System Disorders (any dose): 20 (66.7) N (%) | Paraesthesia generalized (any dose): 2 (6.7) N (%) | Paranoia (any dose): 2 (6.7) N (%) | Psychiatric Disorders (any dose): 15 (50.0) N (%) | Respiratory, Thoracic and Mediastinal Disorders (any dose): 5 (16.7) N (%) | Sedation (any dose): 2 (6.7) N (%) | Sensation of heaviness (any dose): 2 (6.7) N (%) | Sensation of pressure (any dose): 2 (6.7) N (%) | Skin and Subcutaneous Tissue Disorders (any dose): 6 (20.0) N (%) | Sleep difficult (any dose): 2 (6.7) N (%) | Sleep disturbance (any dose): 2 (6.7) N (%) | Somnolence (any dose): 3 (10.0) N (%) | Sore throat (any dose): 3 (10.0) N (%) | Spaced out (any dose): 3 (10.0) N (%) | Syncope (any dose): 2 (6.7) N (%) | Taste change (any dose): 2 (6.7) N (%) | Temporal disorientation (any dose): 2 (6.7) N (%) | Tingling (any dose): 2 (6.7) N (%) | Tiredness (any dose): 13 (43.3) N (%) | Visual disturbance (any dose): 4 (13.3) N (%) | Vivid dreams (any dose): 4 (13.3) N (%) | Vomiting (any dose): 3 (10.0) N (%) | Nasal obstruction (male, human, in vivo, 7 days): 2 (6.7) N (%)
